Reference: patent US7943577B2, “Alpha-fetoprotein peptides and uses thereof” (Albany Medical College, priority 2001, dated 2011)

Key:
[1] = tested on: MAPK activation and ER phosphorylation in T47-D human breast cancer cells; assay: E2-induced MAPK activation and ER serine-118 phosphorylation in T47-D cells; type: cell-based; details: E2 10^−8M, 60 m
Protocol: Cells were treated with E2 for 60 m and lysed. The nuclear fraction was isolated, separated by gel electrophoresis of the nucleoproteins, and the proteins were transferred to membranes. The resolved nucleoproteins were immunoblotted with anti-phosphoMAPK (activated MAPK, pMAPK) and anti-phosphoER (pER.) The anti-pER is directed to ER's serine-118. The peptides of the invention, at, e.g., […], blocks MAPK E2 activation and E2-induced ER phosphorylation. However, there is no enhancement by E2 of either MAPK activation or ER phosphorylation when E2 is added with the peptides of the invention. It has been shown by Lobehofer et al. (Cell Growth Differ 11: 99-110 (2000)) that pharmacological inhibition of MAPK prevents E2-induced mitogenesis in human breast cancer cell line (MCF-7). Therefore, the peptides of the invention block ER phosphorylation, a step which is required for full transcriptional activity of ER, and as such, the peptides of the invention are useful anti-cancer, e.g., breast cancer, agents.
The inventors, while not wishing to be limited to a particular method or theory of how the present invention operates, have performed experiments using T-47D cells cultured with estradiol plus peptides of the invention, estradiol alone, peptide alone, or no additives (control). […] There was a corresponding reduction in the phosphorylation of serine 118 on the estrogen receptor. […]

GL261 glioma cells = assay: PCNA and nuclear ERα immunoblot, GL261; type: cell-based, murine; set-up: key to Total Nuclear Estrogen Receptor / PCNA accumulation: “+” indicates increase; “−” indicates decrease; “NC” indicates no change
Protocol: (§1) Cell lines. Glioma cells: C6 cells were cultured in F-12K medium with 18% FBS. F98 cells and GL261 cells were cultured in DMEM with 10% FBS. Head and neck cancer: 22B cells were cultured in DMEM with 10% FBS. Papillary thyroid cancers: BHP2-7 cells and BHP18-21 cells were cultured in DMEM with 10% FBS. Small cell lung cancer: HTB184 cells were cultured in RPMI medium with 10% FBS. Breast cancers: MCF-7 cells were cultured in DMEM (w/o phenol red) with 5% FBS and MDA-MB cells were cultured in DMEM with 10% FBS. Colon cancer: Colo 205 cells were cultured in RPMI medium with 10% FBS. Ovarian cancer: OVCAR-3 cells were culture in RPMI medium with 20% FBS supplemented with insulin. Prostate cancers: LNCaP cells were cultured in RPMI medium with 10% FBS. DU145 cells were cultured in MEM with 10% FBS and PC3 cells were cultured in F-12 medium with 10% FBS. Cervical cancer: HeLa cells were cultured in MEM with 10% FBS. Melanoma cells were cultured in DMEM with 10% FBS. These conditions were determined to maintain cellular production of proliferating cell nuclear antigen (PCNA) at high levels immediately prior to study of AFP-related peptide. All cell cultures were maintained in a 5% CO2/95% O2 incubator at 37 C. Cell fractionation. Fractionation in a microfuge and preparation of nucleoproteins was by our previously reported methods (1-3). Nuclear extracts were prepared by resuspension of the crude nuclei in high salt buffer (hypotonic buffer with 420 mM NaCl and 20% glycerol) at 4° C. with rocking for 1 hr. The supernatants were collected after subsequent centrifugation at 4° C. and 13,000 rpm for 10 min. Immunoblotting. The techniques are standard and have been described in a number of our publications (1-3). In brief, nucleoproteins were separated on discontinuous SDS-PAGE and then transferred by electroblotting to nitocellulose membranes (Millipore, Bedford, Mass.). […] Immunoreactive proteins are detected by chemiluminescence.

[2] = tested on: head and neck 22B cancer cells; assay: PCNA and nuclear ERα immunoblot, 22B; type: cell-based, human; set-up: key to Total Nuclear Estrogen Receptor / PCNA accumulation: “+” indicates increase; “−” indicates decrease; “NC” indicates no change
Protocol: as §1

[3] = tested on: BHP 18-21 papillary thyroid cancer cells; assay: PCNA and nuclear ERα immunoblot, BHP 18-21; type: cell-based; set-up: key: “+” indicates increase; “−” indicates decrease; “NC” indicates no change
Protocol: as §1, with “(1-3).” for “(1-3). Nuclear extracts were prepared by resuspension of the crude nuclei in high salt buffer (hypotonic buffer with 420 mM NaCl and 20% glycerol) at 4° C. with rocking for 1 hr. The supernatants were collected after subsequent centrifugation at 4° C. and 13,000 rpm for 10 min. Immunoblotting. The techniques are standard and have been described in a number of our publications (1-3). In brief, nucleoproteins were separated on discontinuous SDS-PAGE and then transferred by electroblotting to nitocellulose membranes (Millipore, Bedford, Mass.).”

[4] = tested on: small cell lung cancer HTB 184 cells; assay: PCNA and nuclear ERα immunoblot, HTB 184; type: cell-based, human; set-up: key to Total Nuclear Estrogen Receptor / PCNA accumulation: “+” indicates increase; “−” indicates decrease; “NC” indicates no change
Protocol: as §1

[5] = tested on: MDA-MB breast cancer cells; assay: PCNA and nuclear ERα immunoblot, MDA-MB; type: cell-based, human; set-up: key to Total Nuclear Estrogen Receptor / PCNA accumulation: “+” indicates increase; “−” indicates decrease; “NC” indicates no change
Protocol: as §1

[6] = tested on: ovarian cancer OVCAR-3 cells; assay: PCNA and nuclear ERα immunoblot, OVCAR-3; type: cell-based; set-up: key to Total Nuclear Estrogen Receptor / PCNA accumulation: “+” indicates increase; “−” indicates decrease; “NC” indicates no change
Protocol: as §1

[7] = tested on: DU145 prostate carcinoma cells; assay: PCNA and nuclear ERα immunoblot, DU145; type: cell-based, human; set-up: key to Total Nuclear Estrogen Receptor / PCNA accumulation: “+” indicates increase; “−” indicates decrease; “NC” indicates no change
Protocol: as §1

[8] = tested on: PC3 prostate carcinoma cells; assay: PCNA and nuclear ERα immunoblot, PC3; type: cell-based, human; set-up: key to Total Nuclear Estrogen Receptor / PCNA accumulation: “+” indicates increase; “−” indicates decrease; “NC” indicates no change
Protocol: as §1

melanoma cells = assay: PCNA and nuclear ERα immunoblot, melanoma; type: cell-based, human; set-up: key to Total Nuclear Estrogen Receptor / PCNA accumulation: “+” indicates increase; “−” indicates decrease; “NC” indicates no change
Protocol: Cell lines. Glioma cells: C6 cells were cultured in F-12K medium with 18% FBS. F98 cells and GL261 cells were cultured in DMEM with 10% FBS. Head and neck cancer: 22B cells were cultured in DMEM with 10% FBS. Papillary thyroid cancers: BHP2-7 cells and BHP18-21 cells were cultured in DMEM with 10% FBS. Small cell lung cancer: HTB184 cells were cultured in RPMI medium with 10% FBS. Breast cancers: MCF-7 cells were cultured in DMEM (w/o phenol red) with 5% FBS and MDA-MB cells were cultured in DMEM with 10% FBS. Colon cancer: Colo 205 cells were cultured in RPMI medium with 10% FBS. Ovarian cancer: OVCAR-3 cells were culture in RPMI medium with 20% FBS supplemented with insulin. Prostate cancers: LNCaP cells were cultured in RPMI medium with 10% FBS. DU145 cells were cultured in MEM with 10% FBS and PC3 cells were cultured in F-12 medium with 10% FBS. Cervical cancer: HeLa cells were cultured in MEM with 10% FBS. Melanoma cells were cultured in DMEM with 10% FBS. These conditions were determined to maintain cellular production of proliferating cell nuclear antigen (PCNA) at high levels immediately prior to study of AFP-related peptide. All cell cultures were maintained in a 5% CO2/95% O2 incubator at 37 C. Cell fractionation. Fractionation in a microfuge and preparation of nucleoproteins was by our previously reported methods (1-3). Nuclear extracts were prepared by resuspension of the crude nuclei in high salt buffer (hypotonic buffer with 420 mM NaCl and 20% glycerol) at 4° C. with rocking for 1 hr. The supernatants were collected after subsequent centrifugation at 4° C. and 13,000 rpm for 10 min. Immunoblotting. The techniques are standard and have been described in a number of our publications (1-3). In brief, nucleoproteins were separated on discontinuous SDS-PAGE and then transferred by electroblotting to nitocellulose membranes (Millipore, Bedford, Mass.). After blocking with 5% milk in Tris-buffered saline containing 0.1% Tween, the membranes were incubated with either mouse anti-human PCNA (Santa Cruz Biotech., Santa Cruz, Calif.) or mouse anti-human ER antibody (Santa Cruz) overnight. Secondary antibody was rabbit anti-mouse IgG (1:1000)(Dako), depending upon the origin of the primary antibody. Immunoreactive proteins are detected by chemiluminescence.

[9] = HTB 184 (Small Cell Lung Cancer)

## C[C@]12CC[C@@H]3c4ccc(O)cc4CC[C@H]3[C@@H]1CC[C@@H]2O [E2, 17β-estradiol]
[1]
  MAPK activation (pMAPK) and ER serine phosphorylation (pER), nuclear fraction immunoblot: activates MAPK, e.g., in T47-D human breast cancer cells and serine-phosphorylates ER
GL261 glioma cells; GL261 (Glioma)
  PCNA accumulation: −
  Total Nuclear Estrogen Receptor: +
GL261 glioma cells; GL261, 10^−9 M E2 or 10^−6 M AFP-peptide, 24 h
  nuclear ERα: increased nuclear accumulation of ERα
[2]; 22B (Head Neck Cancer)
  PCNA accumulation: +
  Total Nuclear Estrogen Receptor: +
[2]; 22B, 10^−9M E2 or 10^−7 M AFP-peptide, 24 h
  nuclear ERα: increased nuclear accumulation of ERα
[3]
  PCNA accumulation: +
  Total Nuclear Estrogen Receptor: +
[4]; [9]
  PCNA accumulation: +
  Total Nuclear Estrogen Receptor: +
[4]; HTB 184, 10^−9M E2 or 10^−6 M AFP-peptide, 24 h
  nuclear ERα: increased nuclear ERα accumulation
[5]; MDA-MB (Breast Cancer)
  PCNA accumulation: NC
  Total Nuclear Estrogen Receptor: NC
[5]; MDA-MB, 10^−9 M E2 or 10^−6 M peptide, 24 h
  nuclear ER: no significant change in ER
[6]; OVCAR-3 (Ovarian Cancer)
  PCNA accumulation: +
  Total Nuclear Estrogen Receptor: NC
[6]; OVCAR-3, 10^−9 M E2 or 10^−7M AFP-peptide, 24 h
  nuclear ERα: did not increase nuclear accumulation of ERα
[7]; DU 145 (Prostate Cancer)
  PCNA accumulation: −
  Total Nuclear Estrogen Receptor: −
[7]; DU145, 10^−9 M E2 or 10^−6 M AFP-peptide, 24 h
  nuclear ERα: did not increase nuclear accumulation of ERα
[8]; PC 3 (Prostate Cancer)
  PCNA accumulation: −
  Total Nuclear Estrogen Receptor: NC
[8]; PC3, 10^−9 M E2 or 10^−6 M AFP-peptide, 24 h
  nuclear ERα: did not increase nuclear accumulation of ERα
Melanoma cells; Melanoma (Skin Cancer)
  PCNA accumulation: −
  Total Nuclear Estrogen Receptor: −
Melanoma cells; melanoma, 10^−9 M E2 or 10^−6M AFP-peptide, 24 h
  nuclear ERα: decrease nuclear ERα accumulation
Melanoma cells; melanoma, AFP-peptide 10^−9 to 10^−7 M (left panel), 10^−9 M E2 or 10^−6M AFP-peptide (right panel), 24 h
  PCNA accumulation: reduce PCNA
